Km and Ki data for two substances are collected here from PMC11331127 (Proceedings of the National Academy of Sciences of the …, 2024).

What all share (format): cell-based
The target of assay [1] is T1, Cx26 (Homo sapiens, UniProt P29033). As to the kind of experiment: dye uptake rate in Xenopus oocytes. Particulars: transport (dye permeation); resting membrane potential.
Assay [2] concerns the target Cx30 (Homo sapiens, UniProt O95452). As to the kind of experiment: dye uptake rate in Xenopus oocytes. Particulars: transport (dye permeation); resting membrane potential.
For assay [3], the target named is Cx26 (Homo sapiens, UniProt P29033, INS2A). Nature of the assay: dye uptake rate in Xenopus oocytes. Conditions: transport (dye permeation); resting membrane potential.
Assay [4] addresses T1, Cx26. As to the kind of experiment: inhibition of DAPI uptake in Xenopus oocytes. Particulars: competitive versus DAPI; resting membrane potential.

Cx30, sequence (O95452 whole entry): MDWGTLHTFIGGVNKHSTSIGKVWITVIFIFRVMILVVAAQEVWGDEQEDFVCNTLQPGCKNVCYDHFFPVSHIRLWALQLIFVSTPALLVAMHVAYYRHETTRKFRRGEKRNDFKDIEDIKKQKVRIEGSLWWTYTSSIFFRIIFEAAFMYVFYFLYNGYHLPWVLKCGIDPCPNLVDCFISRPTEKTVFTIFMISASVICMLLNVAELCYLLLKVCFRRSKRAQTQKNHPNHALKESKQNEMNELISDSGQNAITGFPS

On to DAPI, for which the Km (in general, the substrate concentration at which the rate is half of its maximum) in assay [1] stood at 90.1 ± 22 µM.

For ethidium, the Km in assay [2] came out at 6.6 ± 2 µM; in assay [3], 88.6 ± 17.4 µM. In addition, the Ki (usually a dissociation constant, usually derived from enzyme kinetics or from competition with a known ligand) in assay [4] is around 16.5 µM.
